Where two headings read alike, the source gives them in different places.

One series has as its target T1, MEK1 (Homo sapiens, UniProt Q02750).
T1 construct: purchased Thermo Fisher Scientific Inc. (MEK1, CRAF); Carna Biosciences, Inc. (ERK2)
As to the kind of experiment: MEK1-inhibiting activity, fluorescent polarization method (CRAF/MEK1/ERK2 cascade, IMAP). It counts as biochemical. As to conditions: Table 3; read-out: MEK1 IC50. On the procedure: The MEK1-inhibiting activity of the compounds listed in Table 3 below were evaluated by the fluorescent polarization method as described below.

For the next series, the system named is NCI-H2122. As to the kind of experiment: Cell proliferation-inhibiting activity (ATP in viable cells, CellTiter-Glo), NCI-H2122. It counts as cell-based, human. As to conditions: read-out: NCI-H2122 IC50. (In general: Cellular ATP, detected with luciferase, serves as a proxy for viable cell number.)
The next series relates to A549. As to the kind of experiment: Cell proliferation-inhibiting activity (ATP in viable cells, CellTiter-Glo), A549. The series is classed as cell-based, human. Particulars: read-out: A549 IC50.
Series [1] in a line: Human liver microsome stability. The series is classed as in vitro ADME. Particulars: human liver microsomes, pH 7.4. (In general: Liver microsomes are vesicles of endoplasmic reticulum, rich in cytochrome P450 enzymes.)
The next series has as its target T2, BRAF (Homo sapiens, UniProt P15056).
T2 construct: purchased Eurofins Genomics KK; (BRAF); Thermo Fisher Scientific Inc. (MEK1)
As to the kind of experiment: BRAF-inhibiting activity, time-resolved fluorescence-fluorescence resonance energy transfer assay. The series is classed as biochemical. As for the experimental part:
The BRAF-inhibiting activity of the compounds listed in Table 3 below was evaluated by the time-resolved fluorescence-fluorescence resonance energy transfer assay as described below.

Setting [2] is: NCI-H2122, 96 h, human lung cancer cells, 4 days.
[3] abbreviates: A549, 96 h, human lung cancer cells, 4 days.
Setting [4] is: human lung cancer cells, 4 days.

T1 sequence (Q02750 whole entry): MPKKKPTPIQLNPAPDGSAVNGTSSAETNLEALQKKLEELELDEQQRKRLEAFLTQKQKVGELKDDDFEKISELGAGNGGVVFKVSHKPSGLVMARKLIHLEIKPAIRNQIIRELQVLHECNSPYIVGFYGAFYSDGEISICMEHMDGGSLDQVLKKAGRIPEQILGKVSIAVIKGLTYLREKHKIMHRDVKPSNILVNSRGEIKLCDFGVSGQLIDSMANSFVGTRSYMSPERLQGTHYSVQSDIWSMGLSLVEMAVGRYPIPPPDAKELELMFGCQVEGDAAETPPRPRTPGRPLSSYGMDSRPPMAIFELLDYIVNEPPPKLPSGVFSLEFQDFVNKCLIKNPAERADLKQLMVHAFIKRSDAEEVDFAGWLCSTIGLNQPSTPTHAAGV
T2 sequence (P15056 417-766 limits assumed): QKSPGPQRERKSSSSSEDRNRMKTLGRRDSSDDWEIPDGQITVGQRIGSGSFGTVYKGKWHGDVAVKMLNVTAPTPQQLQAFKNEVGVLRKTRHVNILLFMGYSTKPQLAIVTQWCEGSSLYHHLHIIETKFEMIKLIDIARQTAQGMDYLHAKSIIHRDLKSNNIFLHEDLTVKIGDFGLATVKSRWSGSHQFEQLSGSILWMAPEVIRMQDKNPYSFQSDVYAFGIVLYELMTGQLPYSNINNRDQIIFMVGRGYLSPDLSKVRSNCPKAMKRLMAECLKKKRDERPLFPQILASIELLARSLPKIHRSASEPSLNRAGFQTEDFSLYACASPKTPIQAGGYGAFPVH

One may read the IC50 as the point on the concentration scale where inhibition reaches its midpoint. For orientation: microsomal CLint means a measure of how fast metabolising enzymes remove a compound, apart from limits set by blood flow. In the case of `NC(=O)c1cc(Cc2cccc(NS(=O)(=O)C3CCC3)c2F)c(F)c(F)c1Nc1ccc(I)cc1F` [Compound E-20, 5-[[3-(Cyclobutylsulfonylamino)-2-fluorophenyl]methyl]-3,4-difluoro-2-(2-fluoro-4-iodoanilino)benzamide], the IC50 on MEK1 amounted to 467 nM; with NCI-H2122 (setting [2]) it was 11 nM; with A549 (setting [3]), 37 nM; at BRAF (read-out: BRAF IC50; Table 3), 13 nM. The molecule further registered a microsomal CLint at 0.99 µM in series [1] of 18 µL/min/mg.

Regarding `NC(=O)c1cc(Cc2ccnc(NS(=O)(=O)NCC3COC3)c2F)c(F)c(F)c1Nc1ccc(I)cc1F` [Compound A-21, 3,4-difluoro-2-(2-fluoro-4-iodoanilino)-5-[[3-fluoro-2-(oxetan-3-ylmethylsulfamoylamino)pyridin-4-yl]methyl]benzamide], the IC50 at MEK1 was 5 nM; with NCI-H2122 (setting [2]) it was 14 nM; with A549 (setting [3]), 31 nM; at BRAF (read-out: BRAF IC50; Table 3) it was 4 nM. This molecule also displayed a microsomal CLint at 0.99 µM in series [1] of 4 µL/min/mg.

Consider `CCCS(=O)(=O)Nc1cccc(Cc2cc(C(N)=O)c(Nc3ccc(I)cc3F)c(F)c2F)c1F` [Compound E-18, 3,4-Difluoro-2-(2-fluoro-4-iodoanilino)-5-[[2-fluoro-3-(propylsulfonylamino)phenyl]methyl]benzamide], for which the IC50 stood at 366 nM at MEK1, 8 nM in the series on NCI-H2122 (setting [2]), 7 nM in the series on A549 (setting [3]) and 5 nM at BRAF (read-out: BRAF IC50; Table 3). The same molecule had an intrinsic clearance (microsomal CLint) at 0.99 µM in series [1] of 29 µL/min/mg.

With `C#Cc1ccc(Nc2c(C(N)=O)cc(Cc3ccnc(NS(=O)(=O)NC)c3F)c(F)c2F)c(F)c1` [Compound A-26, 2-(4-Ethynyl-2-fluoroanilino)-3,4-difluoro-5-[[3-fluoro-2-(methylsulfamoylamino)pyridin-4-yl]methyl]benzamide], the half-inhibitory concentration (IC50) on MEK1 was determined as 5 nM; with NCI-H2122 (Homo sapiens, NCI-H2122, 96 h) it was 2 nM; in the series on A549 (Homo sapiens, A549, 96 h), 7 nM; at BRAF (Table 3; read-out: BRAF IC50), 9 nM. Further, the microsomal CLint at 0.99 µM in series [1] was 13 µL/min/mg.

With `CCS(=O)(=O)Nc1cccc(Cc2cc(C(=O)NC3CC3)c(Nc3ccc(I)cc3F)c(F)c2F)c1F` [Compound D-8, N-Cyclopropyl-5-[[3-(ethylsulfonylamino)-2-fluorophenyl]methyl]-3,4-difluoro-2-(2-fluoro-4-iodoanilino)benzamide], the IC50 at MEK1 came out at 161 nM; in the series with NCI-H2122 (setting [2]) it was 8 nM; with A549 (setting [3]) it was 66 nM; on BRAF (read-out: BRAF IC50; Table 3), 21 nM. The microsomal CLint at 0.99 µM in series [1] is 20 µL/min/mg.

`NC(=O)c1cc(Cc2cccc(NS(=O)(=O)NC[C@H]3CCCO3)c2F)c(F)c(F)c1Nc1ccc(I)cc1F` [Compound D-3, 3,4-Difluoro-2-(2-fluoro-4-iodoanilino)-5-[[2-fluoro-3-[[(2R)-oxolan-2-yl]methylsulfamoylamino]phenyl]methyl]benzamide]: the 50% inhibitory concentration (IC50) was 130 nM at MEK1, 12 nM in the series on NCI-H2122 (setting [2]), 26 nM in the series on A549 (setting [3]) and 1 nM on BRAF (read-out: BRAF IC50; Table 3). Further, the microsomal CLint at 0.99 µM in series [1] stood at 68 µL/min/mg.

As to `NC(=O)c1cc(Cc2cccc(NS(=O)(=O)CCCF)c2F)c(F)c(F)c1Nc1ccc(I)cc1F` [Compound E-15, 3,4-Difluoro-5-[[2-fluoro-3-(3-fluoropropylsulfonylamino)phenyl]methyl]-2-(2-fluoro-4-iodoanilino)benzamide], the half-maximal inhibitory concentration (IC50) was 287 nM at MEK1, 7 nM with NCI-H2122 (setting [2]), 20 nM in the series on A549 (setting [3]) and 4 nM on BRAF (read-out: BRAF IC50; Table 3). The molecule further yielded a microsomal CLint at 0.99 µM in series [1] of 21 µL/min/mg.

Regarding `NC(=O)c1cc(Cc2ccnc(NS(=O)(=O)NC3CCC3)c2F)c(F)c(F)c1Nc1ccc(I)cc1F` [Compound A-32, 5-[[2-(Cyclobutylsulfamoylamino)-3-fluoropyridin-4-yl]methyl]-3,4-dif luoro-2-(2-fluoro-4-iodoanilino)benzamide], the IC50 on MEK1 was found to be 25 nM; with NCI-H2122 (setting [2]) it was 5 nM; in the series with A549 (setting [3]), 7 nM; at BRAF (read-out: BRAF IC50; Table 3), 6 nM. Also, in series [1], the intrinsic metabolic clearance (microsomal CLint) at 0.99 µM was determined as 19 µL/min/mg.

For `CNS(=O)(=O)Nc1nccc(Cc2cc(C(=O)NOC(C)C)c(Nc3ccc(I)cc3F)c(F)c2F)c1F` [Compound A-10, 3,4-Difluoro-2-(2-fluoro-4-iodoanilino)-5-[[3-fluoro-2-(methylsulfamoylamino)pyridin-4-yl]methyl]-N-propan-2-yloxybenzamide], the IC50 is 5 nM at MEK1, 0.2 nM in the series with NCI-H2122 (setting [2]), 0.1 nM in the series on A549 (setting [3]) and 7 nM on BRAF (read-out: BRAF IC50; Table 3). In addition, in series [1], the microsomal CLint at 0.99 µM stood at 89 µL/min/mg.

Regarding `CCCS(=O)(=O)Nc1nccc(Cc2cc(C(N)=O)c(Nc3ccc(I)cc3F)c(F)c2F)c1F` [Compound B-8], the IC50 worked out at 47 nM on MEK1, 14 nM in the series with NCI-H2122 (setting [2]), 95 nM in the series with A549 (setting [3]) and 7 nM on BRAF (read-out: BRAF IC50; Table 3). The intrinsic metabolic clearance (microsomal CLint) at 0.99 µM in series [1] was 24 µL/min/mg.

`NC(=O)c1cc(Cc2cccc(NS(N)(=O)=O)c2F)c(F)c(F)c1Nc1ccc(I)cc1F` [Compound E-8, 3,4-Difluoro-2-(2-fluoro-4-iodoanilino)-5-[[2-fluoro-3-(sulfamoylamino)phenyl]methyl]benzamide]: the IC50 on MEK1 was 137 nM; in the series on NCI-H2122 (setting [2]), 2 nM; with A549 (setting [3]), 3 nM; on BRAF (read-out: BRAF IC50; Table 3) it was 2 nM. The molecule also returned a microsomal CLint at 0.99 µM in series [1] of 1 µL/min/mg.

On to `CNS(=O)(=O)Nc1nccc(Cn2cc(C(N)=O)c(Nc3ccc(I)cc3F)c(F)c2=O)c1F` [Compound N-1, 5-Fluoro-4-(2-fluoro-4-iodoanilino)-1-[[3-fluoro-2-(methylsulfamoylamino)pyridin-4-yl]methyl]-6-oxopyridine-3-carboxamide], for which the IC50 was determined as 1 nM at MEK1, 28 nM with NCI-H2122 (setting [2]), 20 nM in the series on A549 (setting [3]) and 2 nM at BRAF (read-out: BRAF IC50; Table 3). In addition, the microsomal CLint at 0.99 µM in series [1] came out at 8 µL/min/mg.

As for `COCCNS(=O)(=O)Nc1nccc(Cc2cc(C(=O)NOC(C)C)c(Nc3ccc(I)cc3F)c(F)c2F)c1F` [Compound A-11, 3,4-Difluoro-2-(2-fluoro-4-iodoanilino)-5-[[3-fluoro-2-(2-methoxyethylsulfamoylamino)pyridin-4-yl]methyl]-N-propan-2-yloxybenzamide], the IC50 at MEK1 was determined as 7 nM; with NCI-H2122 (setting [2]) it was 1 nM; in the series on A549 (setting [3]) it was 1 nM; on BRAF (read-out: BRAF IC50; Table 3), 9 nM. The molecule also yielded a microsomal CLint at 0.99 µM in series [1] of 128 µL/min/mg.

As for `CC1(NS(=O)(=O)Nc2nccc(Cc3cc(C(N)=O)c(Nc4ccc(I)cc4F)c(F)c3F)c2F)CC1` [Compound A-23, 3,4-Difluoro-2-(2-fluoro-4-iodoanilino)-5-[[3-fluoro-2-[(1-methylcyclopropyl)sulfamoylamino]pyridin-4-yl]methyl]benzamide], the IC50 is 35 nM on MEK1, 1 nM in the series with NCI-H2122 (setting [2]), 5 nM with A549 (setting [3]) and 5 nM at BRAF (read-out: BRAF IC50; Table 3). In series [1], the microsomal CLint at 0.99 µM is less than 1 µL/min/mg.

In the case of `CNS(=O)(=O)Nc1cccc(Cc2cc(C(N)=O)c(Nc3ccc(I)cc3F)c(F)c2F)n1` [Compound H-5, 3,4-Difluoro-2-(2-fluoro-4-iodoanilino)-5-[[6-(methylsulfamoylamino)pyridin-2-yl]methyl]benzamide], the IC50 at MEK1 was found to be 115 nM; with NCI-H2122 (setting [2]) it was 4 nM; in the series on A549 (setting [3]), 6 nM; on BRAF (read-out: BRAF IC50; Table 3), 2 nM. For the same molecule, the microsomal CLint at 0.99 µM in series [1] worked out at 26 µL/min/mg.

For the molecule `COCC(C)(C)NS(=O)(=O)Nc1cccc(Cc2cc(C(N)=O)c(Nc3ccc(I)cc3F)c(F)c2F)c1F` [Compound D-2, 3,4-Difluoro-2-(2-fluoro-4-iodoanilino)-5-[[2-fluoro-3-[(1-methoxy-2-methylpropan-2-yl)sulfamoylamino]phenyl]methyl]benzamide], the IC50 was found to be 242 nM on MEK1, 5 nM in the series on NCI-H2122 (setting [2]), 9 nM with A549 (setting [3]) and 3 nM at BRAF (read-out: BRAF IC50; Table 3). Moreover, the intrinsic clearance (microsomal CLint) at 0.99 µM in series [1] amounted to 103 µL/min/mg.

As to `CCCNS(=O)(=O)Nc1nccc(Cc2cc(C(=O)NOCCO)c(Nc3ccc(I)cc3F)c(F)c2F)c1F` [Compound A-45, 3,4-Difluoro-2-(2-fluoro-4-iodoanilino)-5-[[3-fluoro-2-(propylsulfamoylamino)pyridin-4-yl]methyl]-N-(2-hydroxyethoxy)benzamide], the half-inhibitory concentration (IC50) at MEK1 turned out to be 2 nM; in the series with NCI-H2122 (setting [2]), 1 nM; with A549 (setting [3]), 5 nM; on BRAF (read-out: BRAF IC50; Table 3), 6 nM.

For the molecule `COCC1(NS(=O)(=O)Nc2nccc(Cc3cc(C(N)=O)c(Nc4ccc(I)cc4F)c(F)c3F)c2F)CC1` [Compound A-16], the IC50 turned out to be 8 nM on MEK1, 3 nM in the series on NCI-H2122 (setting [4]), 14 nM in the series on A549 (setting [4]) and 3 nM at BRAF (Table 3; read-out: BRAF IC50).

`NC(=O)c1cc(Cc2ccnc(NS(=O)(=O)NC3C4COCC43)c2F)c(F)c(F)c1Nc1ccc(I)cc1F` (centres unmarked) [Compound A-22, 3,4-Difluoro-2-(2-fluoro-4-iodoanilino)-5-[[3-fluoro-2-(3-oxabicyclo[3. 1.0]hexan-6-ylsulfamoylamino)pyridin-4-yl]methyl]benzamide]: the IC50 worked out at 6 nM at MEK1, 10 nM with NCI-H2122 (setting [4]), 31 nM with A549 (setting [4]) and 2 nM at BRAF (Table 3; read-out: BRAF IC50).

(Values after EP4725941A1, “ARYLAMIDE DERIVATIVE HAVING ANTITUMOR ACTIVITY” (priority 2020, dated 2021).)
